Reference: patent US20240368203A1, “DEGRADATION OF (EGFR) BY CONJUGATION OF EGFR INHIBITORS WITH E3 LIGASE LIGAND AND METHODS OF USE” (BeiGene, Ltd., priority 2022, published 2024)

Columns and labels:
EGFR-L858R/T790M/C797S = molecular target: T1, EGFR-L858R/T790M/C797S (Homo sapiens, UniProt P00533, C797S/L858R/T790M); experiment: EGFR degradation HTRF assay in H1975-clone #25 cells; type: cell-based; conditions: 16 h treatment; for DC50: H1975-clone #25 (L858R/T790M/C797S) cells, IC50 (DC50), read-out: DC50(nM) H1975 # 25-LTC; for Dmax: NCI-H1975, H1975-clone #25 (L858R/T790M/C797S) cells, maximum percentage of inhibition (degradation), read-out: Dmax (%) H1975 # 25-LTC
T1 construct: expressed in transfected cells; host or cells: H1975-clone #25 (lentiviral over-expression, endogenous EGFR knocked out)
In short: (§1)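 H1975 clones with endogenous EGFR knocked out, homozygously expressing lentiviral L858R/T790M/C797S (#25) or Del19/T790M/C797S (#28), treated 16 h at 37° C with 8 doses from 10 uM, 5-fold, in 0.2% DMSO. EGFR in lysates measured by HTRF overnight; DC50 from four-parameter fit of % degradation.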

EGFR-Del19/T790M/C797S = experiment: EGFR degradation HTRF assay in H1975-clone #28 cells; type: cell-based; conditions: H1975-clone #28 (Del19/T790M/C797S) cells, 16 h treatment; for DC50: IC50 (DC50), read-out: DC50(nM) H1975 # 28 DTC; for Dmax (%) H1975 # 28 DTC: maximum percentage of inhibition (degradation)
In short: as §1

T1 sequence (P00533 25-1210 T790M/C797S/L858R): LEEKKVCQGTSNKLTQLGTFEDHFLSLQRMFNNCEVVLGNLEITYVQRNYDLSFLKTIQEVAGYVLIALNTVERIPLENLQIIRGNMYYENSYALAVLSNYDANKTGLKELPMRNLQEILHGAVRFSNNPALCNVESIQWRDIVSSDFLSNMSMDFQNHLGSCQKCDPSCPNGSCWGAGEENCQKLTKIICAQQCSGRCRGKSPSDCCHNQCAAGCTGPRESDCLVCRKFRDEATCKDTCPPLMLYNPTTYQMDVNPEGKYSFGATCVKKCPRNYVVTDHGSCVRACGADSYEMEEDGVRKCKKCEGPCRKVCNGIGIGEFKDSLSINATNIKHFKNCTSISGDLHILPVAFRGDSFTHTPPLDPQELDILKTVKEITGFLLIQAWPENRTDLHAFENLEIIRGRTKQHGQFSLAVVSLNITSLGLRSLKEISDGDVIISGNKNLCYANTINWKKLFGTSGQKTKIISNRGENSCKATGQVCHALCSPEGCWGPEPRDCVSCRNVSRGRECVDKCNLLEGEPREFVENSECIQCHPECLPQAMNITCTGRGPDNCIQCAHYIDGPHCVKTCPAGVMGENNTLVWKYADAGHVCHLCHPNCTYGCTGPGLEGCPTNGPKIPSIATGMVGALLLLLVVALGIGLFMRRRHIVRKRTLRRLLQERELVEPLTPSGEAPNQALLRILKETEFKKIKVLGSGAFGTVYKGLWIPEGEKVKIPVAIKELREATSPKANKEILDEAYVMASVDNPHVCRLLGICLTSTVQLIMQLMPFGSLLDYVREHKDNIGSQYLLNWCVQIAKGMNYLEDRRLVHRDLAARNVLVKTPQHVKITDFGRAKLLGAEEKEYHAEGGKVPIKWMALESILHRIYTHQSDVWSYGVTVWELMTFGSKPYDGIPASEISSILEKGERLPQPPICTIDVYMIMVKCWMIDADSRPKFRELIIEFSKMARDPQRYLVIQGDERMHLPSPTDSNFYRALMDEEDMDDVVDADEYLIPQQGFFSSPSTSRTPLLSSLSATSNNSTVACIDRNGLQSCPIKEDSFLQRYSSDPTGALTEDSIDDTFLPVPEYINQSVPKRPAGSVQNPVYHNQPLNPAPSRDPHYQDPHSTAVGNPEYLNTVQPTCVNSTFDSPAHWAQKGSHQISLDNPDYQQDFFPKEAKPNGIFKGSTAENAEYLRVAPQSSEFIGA

Structure (SMILES)	DC50 (EGFR-L858R/T790M/C797S) [nM]	Dmax (EGFR-L858R/T790M/C797S) [%]	DC50 (EGFR-Del19/T790M/C797S) [nM]	Dmax (%) H1975 # 28 DTC (EGFR-Del19/T790M/C797S) [%]
CCc1cc(Nc2ncc(Br)c(Nc3ccc4nc(C)c(F)cc4c3P(C)(C)=O)n2)c(OC)cc1N1CCC2(CCN(CC3CN(c4cc(F)c([C@H]5CCC(=O)NC5=O)c(F)c4)C3)CC2)CC1 [Example 39, (R)-3-(4-(3-((9-(4-((5-bromo-4-((5-(dimethylphosphoryl)-3-fluoro-2-methylquinolin-6-yl)amino)pyrimidin-2-yl)amino)-2-ethyl-5-methoxyphenyl)-3,9-diazaspiro[5.5]undecan-3-yl)methyl)azetidin-1-yl)-2,6-difluorophenyl)piperidine-2,6-dione]	5.6	93	2.6	92
CCc1ncc2c(P(C)(C)=O)c(Nc3nc(Nc4cc(CC)c(N5CCC6(CCN(CCc7cc(F)c([C@H]8CCC(=O)NC8=O)c(F)c7)CC6)CC5)cc4OC)ncc3Br)ccc2n1 [Example 40, (R)-3-(4-(2-(9-(4-((5-bromo-4-((5-(dimethylphosphoryl)-2-ethylquinazolin-6-yl)amino)pyrimidin-2-yl)amino)-2-ethyl-5-methoxyphenyl)-3,9-diazaspiro[5.5]undecan-3-yl)ethyl)-2,6-difluorophenyl)piperidine-2,6-dione]	6	86	2.4	88
CCc1cc(Nc2ncc(Cl)c(Nc3ccc4nc(C)c(F)cc4c3P(C)(C)=O)n2)c(OC)cc1N1CCC2(CCN(CCc3cc(F)c([C@H]4CCC(=O)NC4=O)c(F)c3)CC2)CC1 [Example 41, (R)-3-(4-(2-(9-(4-((5-chloro-4-((5-(dimethylphosphoryl)-3-fluoro-2-methylquinolin-6-yl)amino)pyrimidin-2-yl)amino)-2-ethyl-5-methoxyphenyl)-3,9-diazaspiro[5.5]undecan-3-yl)ethyl)-2,6-difluorophenyl)piperidine-2,6-dione]	4.2	88	4.2	86
CCc1ncc2c(P(C)(C)=O)c(Nc3nc(Nc4cc(C)c(N5CCC6(CCN(CCc7cc(F)c([C@H]8CCC(=O)NC8=O)c(F)c7)CC6)CC5)cc4OC)ncc3Cl)ccc2n1 [Example 42, (R)-3-(4-(2-(9-(4-((5-chloro-4-((5-(dimethylphosphoryl)-2-ethylquinazolin-6-yl)amino)pyrimidin-2-yl)amino)-5-methoxy-2-methylphenyl)-3,9-diazaspiro[5.5]undecan-3-yl)ethyl)-2,6-difluorophenyl)piperidine-2,6-dione]	4.9	85	1.5	93
CCc1cc(Nc2ncc(Br)c(Nc3ccc4nc(C)c(F)cc4c3P(C)(C)=O)n2)c(OC)cc1N1CCC2(CCN(CCN(C)c3cc(F)c([C@H]4CCC(=O)NC4=O)c(F)c3)CC2)CC1 [Example 44, (R)-3-(4-((2-(9-(4-((5-bromo-4-((5-(dimethylphosphoryl)-3-fluoro-2-methylquinolin-6-yl)amino)pyrimidin-2-yl)amino)-2-ethyl-5-methoxyphenyl)-3,9-diazaspiro[5.5]undecan-3-yl)ethyl)(methyl)amino)-2,6-difluorophenyl)piperidine-2,6-dione]	4.2	92	3.5	90
CCc1cc(Nc2ncc(Br)c(Nc3ccc4nc(C)c(F)cc4c3P(C)(C)=O)n2)c(OC)cc1N1CCC2(CCN(CC3CCN(c4cccc5c4C(=O)N(C4CCC(=O)NC4=O)C5=O)CC3)CC2)CC1 (centres unmarked) [Example 45, 4-(4-((9-(4-((5-bromo-4-((5-(dimethylphosphoryl)-3-fluoro-2-methylquinolin-6-yl)amino)pyrimidin-2-yl)amino)-2-ethyl-5-methoxyphenyl)-3,9-diazaspiro[5.5]undecan-3-yl)methyl)piperidin-1-yl)-2-(2,6-dioxopiperidin-3-yl)isoindoline-1,3-dione]	7.4	86	7.7	81
CCc1cc(Nc2ncc(Br)c(Nc3ccc4nc(C)c(F)cc4c3P(C)(C)=O)n2)c(OC)cc1N1CCC2(CCN(CC3CCN(c4ccc5c(c4)C(=O)N(C4CCC(=O)NC4=O)C5=O)CC3)CC2)CC1 (centres unmarked) [Example 46, 5-(4-((9-(4-((5-bromo-4-((5-(dimethylphosphoryl)-3-fluoro-2-methylquinolin-6-yl)amino)pyrimidin-2-yl)amino)-2-ethyl-5-methoxyphenyl)-3,9-diazaspiro [5.5]undecan-3-yl)methyl)piperidin-1-yl)-2-(2,6-dioxopiperidin-3-yl)isoindoline-1,3-dione]	5.4	89	3.3	80
CCc1cc(Nc2ncc(Br)c(Nc3ccc4nc(C)c(F)cc4c3P(C)(C)=O)n2)c(OC)cc1N1CCC2(CCN(CC3CCN(c4cc5c(cc4F)C(=O)N(C4CCC(=O)NC4=O)C5=O)CC3)CC2)CC1 (centres unmarked) [Example 47, 5-(4-((9-(4-((5-bromo-4-((5-(dimethylphosphoryl)-3-fluoro-2-methylquinolin-6-yl)amino)pyrimidin-2-yl)amino)-2-ethyl-5-methoxyphenyl)-3,9-diazaspiro[5.5]undecan-3-yl)methyl)piperidin-1-yl)-2-(2,6-dioxopiperidin-3-yl)-6-fluoroisoindoline-1,3-dione]	16	88	14.3	73
CCc1cc(Nc2ncc(Br)c(Nc3ccc4nc(C)c(F)cc4c3P(C)(C)=O)n2)c(OC)cc1N1CCC2(CCN(CC3CCN(c4ccc5c(c4)CN(C4CCC(=O)NC4=O)C5=O)CC3)CC2)CC1 (centres unmarked) [Example 48, 3-(5-(4-((9-(4-((5-bromo-4-((5-(dimethylphosphoryl)-3-fluoro-2-methylquinolin-6-yl)amino)pyrimidin-2-yl)amino)-2-ethyl-5-methoxyphenyl)-3,9-diazaspiro[5.5]undecan-3-yl)methyl)piperidin-1-yl)-1-oxoisoindolin-2-yl)piperidine-2,6-dione]	2.8	90	1.7	83
CCc1cc(Nc2ncc(Br)c(Nc3ccc4nc(C)c(F)cc4c3P(C)(C)=O)n2)c(OC)cc1N1CCC2(CCN(C[C@@H]3CCN(c4ccc5c(c4)C(=O)N(C4CCC(=O)NC4=O)C5=O)C3)CC2)CC1 (stereo partly drawn) [Example 49, 5-((S)-3-((9-(4-((5-bromo-4-((5-(dimethylphosphoryl)-3-fluoro-2-methylquinolin-6-yl)amino)pyrimidin-2-yl)amino)-2-ethyl-5-methoxyphenyl)-3,9-diazaspiro[5.5]undecan-3-yl)methyl)pyrrolidin-1-yl)-2-(2,6-dioxopiperidin-3-yl)isoindoline-1,3-dione]	7.6	89	3.8	82
CCc1cc(Nc2ncc(Br)c(Nc3ccc4nc(C)c(F)cc4c3P(C)(C)=O)n2)c(OC)cc1N1CCC2(CC1)CCN(C1CCN(c3cccc4c3n(C)c(=O)n4C3CCC(=O)NC3=O)CC1)CC2 (centres unmarked) [Example 51, 3-(4-(4-(9-(4-((5-bromo-4-((5-(dimethylphosphoryl)-3-fluoro-2-methylquinolin-6-yl)amino)pyrimidin-2-yl)amino)-2-ethyl-5-methoxyphenyl)-3,9-diazaspiro[5.5]undecan-3-yl)piperidin-1-yl)-3-methyl-2-oxo-2,3-dihydro-1H-benzo[d]imidazol-1-yl)piperidine-2,6-dione]	3.1	89	2.5	77
CCc1cc(Nc2ncc(Br)c(Nc3ccc4nc(C)c(F)cc4c3P(C)(C)=O)n2)c(OC)cc1N1CCC2(CC1)CCN(C1CCN(c3cccc4c3C(C)(C)C(=O)N4C3CCC(=O)NC3=O)CC1)CC2 (centres unmarked) [Example 52, 3-(4-(4-(9-(4-((5-bromo-4-((5-(dimethylphosphoryl)-3-fluoro-2-methylquinolin-6-yl)amino)pyrimidin-2-yl)amino)-2-ethyl-5-methoxyphenyl)-3,9-diazaspiro[5.5]undecan-3-yl)piperidin-1-yl)-3,3-dimethyl-2-oxoindolin-1-yl)piperidine-2,6-dione]	3.8	90	3.4	79
CCOc1cc(N2CCC(N3CCN(C4CCN(c5cc(F)c([C@H]6CCC(=O)NC6=O)c(F)c5)CC4)CC3)CC2)c(CC)cc1Nc1ncc(Cl)c(Nc2ccc3nc(C)c(F)cc3c2P(C)(C)=O)n1 [Example 54, (R)-3-(4-(4-(4-(1-(4-((5-chloro-4-((5-(dimethylphosphoryl)-3-fluoro-2-methylquinolin-6-yl)amino)pyrimidin-2-yl)amino)-5-ethoxy-2-ethylphenyl)piperidin-4-yl)piperazin-1-yl)piperidin-1-yl)-2,6-difluorophenyl)piperidine-2,6-dione]	3.6	88	3.6	86
CCc1ncc2c(P(C)(C)=O)c(Nc3nc(Nc4cc(CC)c(N5CCC(N6CC(CN7CCC(c8cc(F)c([C@H]9CCC(=O)NC9=O)c(F)c8)CC7)C6)CC5)cc4OC)ncc3Br)ccc2n1 [Example 55, (R)-3-(4-(1-((1-(1-(4-((5-bromo-4-((5-(dimethylphosphoryl)-2-ethylquinazolin-6-yl)amino)pyrimidin-2-yl)amino)-2-ethyl-5-methoxyphenyl)piperidin-4-yl)azetidin-3-yl)methyl)piperidin-4-yl)-2,6-difluorophenyl)piperidine-2,6-dione]	2.4	92	5.6	91
